Measured values taken from US20220298138A1, “ENZYME INHIBITORS” (KALVISTA PHARMACEUTICALS LIMITED, priority 2019, published 2022).

Legend:
[1] = target: T1, Human Factor XIIa (Homo sapiens, UniProt P00748); test: Factor XIIa inhibitory activity in vitro (fluorogenic substrate H-DPro-Phe-Arg-AFC); type: biochemical; conditions: 25° C., class symbols, read-out: Human FXIIa IC50
T1 construct: purchased Enzyme Research Laboratories
T1 sequence (P00748 373-615 limits assumed): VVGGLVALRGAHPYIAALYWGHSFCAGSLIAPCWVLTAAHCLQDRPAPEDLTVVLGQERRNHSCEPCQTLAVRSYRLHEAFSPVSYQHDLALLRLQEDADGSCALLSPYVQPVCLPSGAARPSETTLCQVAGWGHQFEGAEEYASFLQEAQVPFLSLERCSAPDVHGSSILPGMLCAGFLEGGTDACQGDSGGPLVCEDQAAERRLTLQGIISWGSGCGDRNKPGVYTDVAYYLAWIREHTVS
Method in brief: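 Enzyme incubated at 25° C with fluorogenic substrate H-DPro-Phe-Arg-AFC and a range of compound concentrations. Residual activity taken as initial reaction rate from […], giving IC50.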

[2] = target: T2, Human FXIa (Homo sapiens, UniProt P03951); test: FXIa inhibitory activity in vitro (fluorogenic substrate Z-Gly-Pro-Arg-AFC), selectivity; type: biochemical; conditions: 25° C.
T2 construct: Human FXIa (Enzyme Research Laboratories) was incubated; purchased Enzyme Research Laboratories
Experimental: Determination of the % Inhibition for FXIa
Human FXIa (Enzyme Research Laboratories) was incubated at 25° C. with the fluorogenic substrate Z-Gly-Pro-Arg-AFC and various concentrations of the test compound. Residual enzyme activity (initial rate of reaction) was determined by measuring the change in fluorescence at 410 nm and the IC50 value for the test compound was determined.

T2 sequence (P03951 388-625 limits assumed): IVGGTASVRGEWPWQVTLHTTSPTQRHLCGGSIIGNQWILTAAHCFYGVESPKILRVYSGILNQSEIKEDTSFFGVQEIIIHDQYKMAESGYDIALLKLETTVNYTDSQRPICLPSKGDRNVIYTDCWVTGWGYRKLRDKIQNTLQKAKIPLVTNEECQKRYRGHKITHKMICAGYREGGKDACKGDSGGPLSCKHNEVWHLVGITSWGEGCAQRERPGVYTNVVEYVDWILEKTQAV
T2 sequence (P03951 19-387 partner limits assumed): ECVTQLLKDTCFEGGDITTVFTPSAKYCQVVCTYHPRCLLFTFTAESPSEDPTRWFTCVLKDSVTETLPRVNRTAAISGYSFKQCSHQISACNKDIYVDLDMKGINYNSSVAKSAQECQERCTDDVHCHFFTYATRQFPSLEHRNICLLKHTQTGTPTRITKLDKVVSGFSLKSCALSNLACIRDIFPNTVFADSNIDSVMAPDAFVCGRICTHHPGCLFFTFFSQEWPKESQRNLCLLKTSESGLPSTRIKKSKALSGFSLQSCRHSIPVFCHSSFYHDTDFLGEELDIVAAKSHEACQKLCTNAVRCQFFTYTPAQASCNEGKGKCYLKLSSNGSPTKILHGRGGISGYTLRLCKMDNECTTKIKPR

Row | IC50 [1] | IC50 ([2]; category scale) | IC50 ([2]; numeric bound printed instead of category) | Compound
1 | 0.03 to 0.1 µM | > 40 µM | – | C[C@@H]1CCC[C@H](C)N1CC(=O)N[C@@H](Cc1ccc(F)c(F)c1)C(=O)NCc1ccc2c(N)nccc2c1 [Example 3.42, (2S)—N-[(1-aminoisoquinolin-6-yl)methyl]-3-(3,4-difluorophenyl)-2-{2-[(2R,6S)-2,6-dimethylpiperidin-1-yl]acetamido}propanamide]
2 | 1 to 3 µM | > 40 µM | – | N[C@H](CCCCN1Cc2ccccc2C1)C(=O)N1CC[C@H]1C(=O)NCc1ccc2[nH]cc(Cl)c2c1 [Example 10.10]
3 | 3 to 10 µM | > 40 µM | – | N[C@H](CCCCN1CCN(c2ncccn2)CC1)C(=O)N1CC[C@H]1C(=O)NCc1ccc2[nH]cc(Cl)c2c1 [Example 10.08]
4 | 1 to 3 µM | 3 to 10 µM | – | CC(C)[C@H](N)C(=O)N[C@H](CC1CCCC2CCCCC21)C(=O)NCc1ccc(C(=N)N)s1 (stereo partly drawn) [Example 71.04]
5 | 10 to 40 µM | > 40 µM | – | CC(C)c1cncc(C(=O)N[C@@H](Cc2ccc(F)c(F)c2)C(=O)NCc2ccc3c(N)nccc3c2)n1 [Example 0.98]
6 | 3 to 10 µM | 3 to 10 µM | – | C[C@H](NC(=O)[C@H](N)CCCc1ccccc1)C(=O)NCc1ccc2c(N)nccc2c1 [Example 6.18]
7 | 10 to 40 µM | > 40 µM | – | N[C@H](CCCCO)C(=O)N1CC[C@H]1C(=O)NCc1ccc2[nH]cc(Cl)c2c1 [Example 10.06]
8 | 1 to 3 µM | 10 to 40 µM | – | Nc1nccc2cc(CNC(=O)C3(NC(=O)[C@H](N)CCc4ccccc4)CCC3)ccc12 [Example 54.02]
9 | 10 to 40 µM | > 40 µM | – | C[C@@H]1CCC[C@H](C)N1CC(=O)N[C@H]1CCC[C@@H]1C(=O)NCc1ccc2c(N)nccc2c1 [Example 32.15]
10 | 10 to 40 µM | > 40 µM | – | Nc1nccc2cc(CNC(=O)CNC(=O)c3ccc(N4CCOCC4)cc3)ccc12 [Example 18.106]
11 | 0.28 to 1 µM | > 40 µM | – | C[C@H](NC(=O)[C@H](N)CCc1ccccn1)C(=O)NCc1ccc2c(N)nccc2c1 [Example 6.13]
12 | 3 to 10 µM | > 40 µM | – | CC(C)N[C@H](CCCCN1CCCCC1)C(=O)N[C@@H](Cc1ccc(F)c(F)c1)C(=O)NCc1cccs1 [Example 27.07]
13 | 0.28 to 1 µM | 3 to 10 µM | – | CC(C)N[C@H](CCc1ccccc1)C(=O)N(C)[C@@H](C)C(=O)NCc1ccc2c(N)nccc2c1 [Example 65.01]
14 | 0.28 to 1 µM | > 40 µM | – | CC(C)N[C@H](CCc1ccccc1)C(=O)N1CCC[C@H]1C(=O)NCc1cnc2[nH]cc(Cl)c2c1 [Example 27.01]
15 | 0.28 to 1 µM | 10 to 40 µM | – | CC(C)N[C@H](CCCCN1Cc2ccccc2C1)C(=O)N1CC[C@H]1C(=O)NCc1ccc2[nH]cc(Cl)c2c1 [Example 10.11]
16 | 10 to 40 µM | 1 to 3 µM | – | COc1ccc(-n2ccc(C(F)(F)F)n2)c(CNC(=O)[C@H](C)NC(=O)[C@@H](N)CCc2ccccc2)c1F [Example 9.05]
17 | 10 to 40 µM | > 40 µM | – | C[C@H](NC(=O)[C@@H](N)CCc1ccccn1)C(=O)NCc1ccc2c(N)nccc2c1 [Example 6.12]
18 | 1 to 3 µM | > 40 µM | – | CC(C)n1cc(C(=O)N[C@@H](Cc2ccc(F)c(F)c2)C(=O)NCc2ccc3c(N)nccc3c2)ccc1=O [Example 0.94]
19 | 10 to 40 µM | 10 to 40 µM | – | CC(C)N[C@H](COc1ccccc1)C(=O)N1CCC1C(=O)NCc1ccc2[nH]cc(Cl)c2c1 (stereo partly drawn) [Example 10.17]
20 | 0.28 to 1 µM | > 40 µM | – | N[C@H](CCCCN1CCC(F)(F)C1)C(=O)N1CC[C@H]1C(=O)NCc1cnc2[nH]cc(Cl)c2c1 [Example 10.04]
21 | 1 to 3 µM | 10 to 40 µM | – | C[C@H](NC(=O)[C@H](N)CCCCN1CCCCC1)C(=O)NCc1ccc2c(N)nccc2c1 [Example 6.14]
22 | 0.1 to 0.279 µM | > 40 µM | – | CC(C)N[C@H](CCc1ccccc1)C(=O)N[C@@H](C)C(=O)NCc1cc2c(N)nccc2o1 [Example 9.24]
23 | 0.28 to 1 µM | 10 to 40 µM | – | C[C@H](NC(=O)[C@H](N)CCc1ccccc1)C(=O)NCc1cnc2[nH]cc(Cl)c2c1 [Example 9.01]
24 | 10 to 40 µM | > 40 µM | – | C[C@H](NC(=O)[C@@H]1NCc2ccccc21)C(=O)NCc1ccc2c(N)nccc2c1 [Example 45.05]
25 | < 0.03 µM | 1 to 3 µM | – | CC(C)N[C@H](CCCCN1CCCCC1)C(=O)N[C@@H](Cc1csc2ccccc12)C(=O)NCc1ccc2c(N)nccc2c1 [Example 12.07]
26 | 10 to 40 µM | > 40 µM | – | C[C@@H]1CCC[C@H](C)N1CC(=O)N1C[C@H]2[C@@H]([C@H]1C(=O)NCc1ccc3c(N)nccc3c1)C2(C)C [Example 32.13]

Row | IC50 [1] | IC50 ([2]; category scale) | IC50 ([2]; numeric bound printed instead of category) | Compound
27 | 3 to 10 µM | > 40 µM | – | CC(C)n1ccc(C(=O)N[C@@H](Cc2ccc(F)c(F)c2)C(=O)NCc2ccc3c(N)nccc3c2)cc1=O [Example 0.96]
28 | 0.28 to 1 µM | 3 to 10 µM | – | C[C@H](NC(=O)[C@H]1C[C@@H](c2ccccc2)CN1)C(=O)NCc1ccc2c(N)nccc2c1 [Example 45.01]
29 | 0.1 to 0.279 µM | 3 to 10 µM | – | CC(C)N[C@H](CCCCN1CCCCC1)C(=O)N1CCC[C@H]1C(=O)NCc1cnc2[nH]cc(Cl)c2c1 [Example 27.02]
30 | 10 to 40 µM | > 40 µM | – | C[C@@H]1CCC[C@H](C)N1CC(=O)N1CC2CC(C(=O)NCc3ccc4c(N)nccc4c3)C1C2 (stereo partly drawn) [Example 32.14]
31 | 1 to 3 µM | > 40 µM | – | C[C@@H](C(=O)NCc1ccc2c(N)nccc2c1)N(C)C(=O)[C@H](N)CCc1ccccc1 [Example 65.02]
32 | 0.03 to 0.1 µM | > 40 µM | – | CC(C)N[C@H](CCCCN1CCCCC1)C(=O)N[C@@H](Cc1ccc(F)c(F)c1)C(=O)NCc1cnc2[nH]cc(Cl)c2c1 [Example 27.04]
33 | 0.28 to 1 µM | 10 to 40 µM | – | CC(C)N[C@H](CCCCN1CCCCC1)C(=O)N[C@@H](C)C(=O)NCc1ccc2c(N)nccc2c1 [Example 12.02]
34 | 0.28 to 1 µM | 10 to 40 µM | – | Nc1nccc2cc(CNC(=O)[C@@H]3C[C@@H](c4ccccc4)CN3C(=O)[C@H](N)CCc3ccccc3)ccc12 [Example 43.03]
35 | 10 to 40 µM | > 40 µM | – | N[C@H](CCCCN1CCc2ccccc21)C(=O)N1CC[C@H]1C(=O)NCc1ccc2[nH]cc(Cl)c2c1 [Example 10.14]
36 | 3 to 10 µM | > 40 µM | – | Nc1nccc2cc(CNC(=O)C3(NC(=O)[C@H](N)CCc4ccccc4)CCOCC3)ccc12 [Example 54.03]
37 | 1 to 3 µM | > 40 µM | – | CC(C)c1cc(C(=O)N[C@@H](Cc2ccc(F)c(F)c2)C(=O)NCc2ccc3c(N)nccc3c2)cnn1 [Example 0.97]
38 | 1 to 3 µM | 10 to 40 µM | – | CC(C)N[C@H](CCc1ccccc1)C(=O)N[C@@H](C)C(=O)NCc1ccc2[nH]cc(Cl)c2c1 [Example 9.08]
39 | 1 to 3 µM | > 40 µM | – | N[C@H](CCCCN1CCc2ccccc2C1)C(=O)N1CC[C@H]1C(=O)NCc1ccc2[nH]cc(Cl)c2c1 [Example 10.09]
40 | 0.1 to 0.279 µM | – | > 10 µM | N=C(N)c1ccc(CNC(=O)[C@H](Cc2cccc3ccccc23)NC(=O)[C@H]2CCCN2)cc1 [Example 71.01]
41 | 1 to 3 µM | 10 to 40 µM | – | Nc1nccc2cc(CNC(=O)[C@@H]3C[C@@H](c4ccccc4)CN3C(=O)[C@@H]3CCCN3)ccc12 [Example 43.06]
42 | 0.03 to 0.1 µM | > 40 µM | – | Nc1nccc2cc(CNC(=O)[C@H](Cc3ccc(F)c(F)c3)NC(=O)[C@H](N)CCCCN3CCCCC3)ccc12 [Example 12.01]
43 | 3 to 10 µM | 10 to 40 µM | – | C[C@@H]1CCC[C@H](C)N1CC(=O)NC1(C(=O)NCc2ccc3c(N)nccc3c2)CCC1 [Example 39.10]
44 | 0.28 to 1 µM | 0.3 to 1 µM | – | C[C@H](NC(=O)[C@@H](CCc1ccccc1)NS(C)(=O)=O)C(=O)NCc1ccc2c(N)nccc2c1 [Example 6.20]
45 | 1 to 3 µM | > 40 µM | – | N[C@H](CCCCN1CCC(F)(F)CC1)C(=O)N1CC[C@H]1C(=O)NCc1ccc2[nH]cc(Cl)c2c1 [Example 10.12]
46 | 10 to 40 µM | 10 to 40 µM | – | CC(C)(NS(=O)(=O)c1ccc2ccccc2c1)C(=O)NCc1ccc2c(N)nccc2c1 [Example 18.105]
47 | 0.28 to 1 µM | > 40 µM | – | Nc1nccc2cc(CNC(=O)[C@H](Cc3ccc(F)c(F)c3)NC(=O)CCCCCN3CCCCC3)ccc12 [Example 12.11]
48 | 10 to 40 µM | > 40 µM | – | Nc1nccc2cc(CNC(=O)CNC(=O)C(CCc3ccccc3)N3CCNCC3)ccc12 (stereo not drawn) [Example 18.109]
49 | 10 to 40 µM | > 40 µM | – | C[C@@H]1CCC[C@H](C)N1CC(=O)N1CCC(C(=O)NCc2ccc3c(N)nccc3c2)C1 (stereo partly drawn) [Example 32.10]
50 | 1 to 3 µM | > 40 µM | – | COc1ccc(C[C@H](NC(=O)[C@@H](CCCCN2CCCCC2)NC(C)C)C(=O)NCc2ccc3c(N)nccc3c2)cc1 [Example 12.09]
51 | 10 to 40 µM | > 40 µM | – | Nc1nccc2cc(CNC(=O)[C@@H]3C[C@@H](c4ccccc4)CN3CC3CCNCC3)ccc12 [Example 43.05]
